Assay results taken from US12637464B2, “Tetracyclic compounds for treating brain disorders” (The Regents of the University of California, priority 2021, dated 2026).

Experiments:
[1] = test system: 5-HT2 receptors; assay: Traditional GPCR binding and functional assays (radioligand binding, IP1, β-arrestin); assay type: cell-based, human; conditions: FIG. 3B
Protocol: Radioligand Binding Assays (5-HT2AR and 5-HT2CR). The 5-HT2AR and 5-HT2CR competitive radioligand binding assays were performed at Epics Therapeutics S.A. (Belgium, FAST-0505B) using conventional methods. Briefly, competition binding was performed in duplicate in the wells of a 96-well plate (Master Block, Greiner, 786201) containing binding buffer, membrane extracts, radiotracer [^3H]-DOI and test compound. Nonspecific binding was determined by co-incubation with 200-fold excess of cold competitor DOI. The samples were incubated in a final volume of 0.1 mL at a temperature and for a duration optimized for either the 5-HT2AR or 5-HT2CR and then filtered over filter plates. […] The plates were incubated for 15 min on an orbital shaker and then counted with a TopCount™ for 1 min/well. […]
IP1 Assay (5-HT2AR and 5-HT2CR). […] After addition of the lysis buffer containing IP1-d2 and anti-IP1 cryptate detection reagents, plates were incubated for 1 h at room temperature and fluorescence ratios were measured according to the manufacturer's specifications using the HTRF kit. […]
β-Arrestin Activation (PathHunter®). […] PK and EA are then expressed as fusion proteins in U2OS cells, with PK fused to the GPCR of interest, and EA fused to β-Arrestin. […]
Serotonin 5-HT2A In Vitro Radioligand Binding Competition Assay. […] Nonspecific binding is determined by co-incubation with 200-fold excess of cold competitor. […]

[2] = test system: serotonin receptors; assay: Radioligand binding selectivity panel (Eurofins Discovery); conditions: FIG. 3A; binding profile compared to (+)-LSD

Compound: CCN(CC)C(=O)[C@@H]1C=C2c3cccc4ccn(c34)C[C@H]2N(C)C1 [(+)-JRT]
- agonism of 5-HT2 receptors [1]: potent agonist of 5-HT2 receptors
- receptor selectivity (binding profile) [2]: highly selective for serotonin receptors
